From patent US7179823B1, “5-membered n-heterocyclic compounds with hypoglycemic and hypolipidemic activity” (Takeda Pharmaceutical Company Limited, priority 1999, dated 2007) come the findings set out here.

One data set deals with T1, PPARγ-RXRα heterodimer (Homo sapiens, UniProt P37231).
T1 construct: expressed in transfected cells; host or cells: CHO-K1
T1 sequence (P37231 1-477 isoform P37231-2): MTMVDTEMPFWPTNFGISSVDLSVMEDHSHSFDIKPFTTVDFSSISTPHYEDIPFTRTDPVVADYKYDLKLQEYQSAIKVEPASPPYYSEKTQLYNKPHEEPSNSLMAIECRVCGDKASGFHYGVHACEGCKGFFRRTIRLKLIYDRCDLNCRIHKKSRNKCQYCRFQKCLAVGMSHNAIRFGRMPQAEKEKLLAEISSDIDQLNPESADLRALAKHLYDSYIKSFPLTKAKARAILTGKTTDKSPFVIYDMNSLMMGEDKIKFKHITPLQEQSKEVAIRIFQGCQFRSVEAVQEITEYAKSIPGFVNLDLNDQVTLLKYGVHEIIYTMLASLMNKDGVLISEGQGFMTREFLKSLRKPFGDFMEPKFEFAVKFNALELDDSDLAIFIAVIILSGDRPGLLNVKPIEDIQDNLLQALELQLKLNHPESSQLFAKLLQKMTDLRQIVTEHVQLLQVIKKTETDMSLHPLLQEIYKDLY
T1 sequence (P19793 1-462 partner): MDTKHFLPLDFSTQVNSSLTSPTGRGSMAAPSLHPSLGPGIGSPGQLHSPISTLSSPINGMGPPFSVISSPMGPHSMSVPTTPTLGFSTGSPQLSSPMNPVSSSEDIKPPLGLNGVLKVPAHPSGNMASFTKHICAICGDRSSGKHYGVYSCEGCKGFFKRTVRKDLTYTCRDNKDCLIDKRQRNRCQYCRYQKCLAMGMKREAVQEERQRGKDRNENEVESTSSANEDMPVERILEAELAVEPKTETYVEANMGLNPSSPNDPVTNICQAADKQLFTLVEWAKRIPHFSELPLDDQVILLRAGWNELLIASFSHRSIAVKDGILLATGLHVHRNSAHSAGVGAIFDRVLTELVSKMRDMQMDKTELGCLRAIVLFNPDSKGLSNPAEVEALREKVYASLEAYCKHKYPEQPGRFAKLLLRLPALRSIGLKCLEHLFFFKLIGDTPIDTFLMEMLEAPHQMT
The data set can be described thus: PPARγ-RXRα heterodimer ligand activity (luciferase reporter, PPARγ:RXRα:4ERPP/CHO-K1 cells). It is filed as cell-based. The conditions noted are these: 48 hours, concentration for 50% of the maximum fold induction. As for the experimental part:
(PPARγ-RXRα Heterodimer Ligand Activity)
A PPARγ:RXRα:4ERPP/CHO-K1 cells obtained in Reference Example 5 described later were cultured in HAM F12 medium (produced by NISSUI SEIYAKU) containing 10% Fetal bovine serum (produced by Life Technologies, Inc., USA) and then inoculated to a 96-well white plate (produced by Corning Costar Corporation, USA) at the density of 2×10^4 cells/well, and cultured in a CO2 gas incubator at 37° C. overnight.
After washing the 96 well white plate with PBS (Phosphate-buffered saline), 90 μl of HAM F12 medium containing 0.1% fatty acid-free bovine serum albumin (BSA) and 10 μl of test compound were added, which was cultured in a CO2 gas incubator at 37° C. for 48 hours. After removing the medium, 40 μl of PIKKAGENE 7.5 (produced by Wako Pure Chemical Industries, Ltd.) was added. After stirring, the luciferase activity was determined using Lumistar (produced by BMG Labtechnologies GmbH, Germany).
A fold induction was calculated based on the luciferase activity of each test compound by taking the luciferase activity in the non-treatment group as 1. The values of the test compound concentration and the fold induction were analyzed using PRISM 2.01 (produced by GraphPad Software Inc. USA) to calculate the EC50 values, the effective concentration of a test compound for 50% of the maximum fold induction.
(Introduction of Human PPARγ- and RXRα-Expressing Plasmid and Reporter Plasmid into CHO-K1 Cell and Establishment of Expressed Cell)
After a CHO-K1 cell cultured in a 750 ml tissue culture flask (produced by Corning Costar Corporation, USA) containing HAM F12 medium (produced by NISSUI SEIYAKU) supplemented with 10% Fetal Bovine Serum (produced by Life Technologies, Inc., USA) was scraped by treating with 0.5 g/L trypsin-0.2 g/L EDTA (ethylenediaminetetraacetic acid) (produced by Life Technologies, Inc., USA), the cell was washed with PBS (phosphate-buffered saline) (produced by Life Technologies, Inc., USA), centrifuged (1000 rpm, 5 minutes), and then suspended in PBS. Subsequently, a DNA was introduced into the cell under the condition shown below using GENE PULSER (produced by Bio-Rad Laboratories, USA).
Namely, to a cuvette having a 0.4 cm gap, added were 8×10^6 cells and 10 μg of plasmid pVgRXR2-hPPAR γ obtained in Reference Example 3 and 10 μg of reporter plasmid pGL3-4ERPP-TK neo obtained in Reference Example 4, which was subjected to electroporation at the voltage of 0.25 kV under the capacitance of 960 μF. Subsequently, the cell was transferred into a HAM F12 medium containing 10% Fetal Bovine Serum and cultured for 24 hours and then the cell was scraped again and centrifuged, and then suspended in HAM F12 medium containing 10% Fetal Bovine Serum supplemented with 500 μg/ml of GENETICIN (produced by Life Technologies, Inc., USA) and 250 μg/ml of ZEOCIN (produced by Invitrogen, USA) and diluted to the density of 10^4 cells/ml upon inoculation to a 96-well plate (produced by Corning Costar Corporation, USA), which was cultured in a CO2 gas incubator at 37° C., whereby obtaining a GENETICIN- and ZEOCIN-resistant transformant.
Subsequently, after the transformant cell line thus obtained was cultured in a 24-well plate (produced by Corning Costar Corporation, USA), selected was a cell line in which the luciferase was expressed and induced, i.e., PPARγ:RXRα:4ERPP/CHO-K1 cell by addition of 10 μM pioglitazone hydrochloride.
A general note: A reporter such as luciferase makes a cellular process visible.

Data set [1] has as its system KKA^y mice. The data set can be described thus: Hypoglycemic and hypolipidemic actions in mice. The data set is classed as in vivo. The conditions noted are these: four days; for inhibition in vivo at 0.005 % / inhibition in vivo at 0.001 %: Mus musculus, po, 96 h; for inhibition in vivo at 0.005 %: 0.005% in powdery diet. From the text:
Hypoglycemic and Hypolipidemic Actions in Mice
Test compounds were mixed in a powdery diet (CE-2, Japan Clea) at the concentration of 0.01% (compounds of Examples 12, 30, 89, 186), 0.005% (compounds of Examples 7, 80, 82, 181, 182, 184, 256, 262, 283), 0.001% (compounds of Examples 9, 104, 110, 155, 156, 160, 167, 169, 172, 174, 176, 189), or 0.0003% (compounds of Examples 38, 40, 44), and freely given to KKA^y mice (9 to 12 weeks old, 5 mice in a group), a model of obese and type 2 diabetes mellitus, for four days. During this period, water was given freely. Blood was sampled from orbital venous plexus, and glucose and triglyceride levels in plasma separated from blood were determined enzymatically using L type Wako Glu2 (Wako Pure Chemical Industries, Ltd.) or L type Wako TG•H (Wako Pure Chemical Industries, Ltd.), respectively.
In the Table, the value of each treatment group is represented as percent reduction compared with the non-treatment group.

In data set [2] the test system is KKA^y mice. In words: Total cholesterol lowering action and plasma anti-arteriosclerosis index-enhancing action in mice. It is filed as in vivo. The following applies: four days, non-treatment group taken as 100%; for change in vivo at 0.005 % / inhibition in vivo at 0.005 %: 0.005% in powdery diet. From the text:
Total Cholesterol Lowering Action and Plasma Anti-Arteriosclerosis Index-Enhancing Action in Mice
Test compounds were mixed in a powdery diet (CE-2, Japan Clea) at the concentration of 0.01% (compounds of Examples 12, 30, 89), 0.005% (compounds of Examples 38, 40, 44, 181, 184, 262, 283), or 0.001% (compounds of Examples 9, 156, 167, 172, 174, 176, 189), and freely given to KKA^y mice (9 to 12 weeks old, 5 mice per group), a model of obese and type 2 diabetes mellitus, for four days. During this period, water was given freely. Blood was sampled from orbital venous plexus and plasma was separated. Total cholesterol levels were determined by using L type Wako Cholesterol (Wako Pure Chemical Industries, Ltd.). Precipitation reagent for apoB containing lipoprotein was added to a part of the plasma to precipitate non-HDL lipoprotein, and cholesterol (HDL cholesterol) in the resulting supernatant was determined. The plasma anti-arteriosclerosis index [(HDL cholesterol/total cholesterol)×100] was calculated by using these cholesterol levels.
In the Table, “Total cholesterol lowering action (%)” represents the percent reduction (%) of total cholesterol level in the treatment group, when the total cholesterol level in the non-treatment group is taken as 100%. “Plasma anti-arteriosclerosis index-enhancing action (%)” represents the percent increase (%) of plasma anti-arteriosclerosis index in the treatment group, when the plasma anti-arteriosclerosis index in the non-treatment group is taken as 100%.

The mark [3] stands for this setting: percent reduction of plasma glucose compared with the non-treatment group, read-out: Hypoglycemic action (%).
The mark [4] stands for this setting: percent reduction of plasma triglyceride compared with the non-treatment group, read-out: Hypolipidemic action (%).
Setting [5] is: 0.001% in powdery diet, percent reduction of plasma glucose compared with the non-treatment group, read-out: Hypoglycemic action (%).
The mark [6] stands for this setting: 0.001% in powdery diet, percent reduction of plasma triglyceride compared with the non-treatment group, read-out: Hypolipidemic action (%).
The mark [7] stands for this setting: Mus musculus, po, 96 h, percent increase of [(HDL cholesterol/total cholesterol)×100], read-out: Plasma anti-arteriosclerosis index-enchancing action (%).
Setting [8] is: Mus musculus, po, 96 h, percent reduction of plasma total cholesterol.

pEC50: −log10 of the molar value.

The term melting point denotes the temperature of the solid-liquid transition. In general, pEC50 refers to the EC50 on a negative log10 scale, so that one unit is a factor of ten. A higher pEC50 goes with a low EC50. `Cc1oc(-c2ccccc2)nc1COc1ccc(Cn2cc(CCC(=O)O)c(-c3ccccc3)c2)cc1` [Example 7, 3-[1-[4-(5-methyl-2-phenyl-4-oxazolylmethoxy)benzyl]-4-phenyl-3-pyrrolyl]propionic acid] returned a melting point of 124 to 125 °C. The compound also gave a pEC50 on PPARγ-RXRα heterodimer of 8.42. The inhibition in vivo at 0.005 % in the data set on KKA^y mice [1] (setting [3]) was 54%. In addition, the inhibition in vivo at 0.005 % with KKA^y mice [1] (setting [4]) is 60%.

As for `Cc1oc(-c2ccco2)nc1COc1ccc(Cn2cc(CCC(=O)O)c(-c3ccccc3)c2)cc1` [Example 8, 3-[1-[4-[2-(2-furyl)-5-methyl-4-oxazolylmethoxy]benzyl]-4-phenyl-3-pyrrolyl]propionic acid], the melting point was 86 to 87 °C. This compound also had a negative-log EC50 (pEC50) at PPARγ-RXRα heterodimer of 8.57.

Regarding `Cc1oc(-c2ccccc2)nc1COc1ccc(Cn2cc(CCC(=O)O)c(-c3ccc(F)cc3)n2)cc1` [Example 100, 3-[3-(4-fluorophenyl)-1-[4-(5-methyl-2-phenyl-4-oxazolylmethoxy)benzyl]-1H-pyrazol-4-yl]propionic acid], the melting point lay within 139 to 140 °C. On PPARγ-RXRα heterodimer, this compound had a pEC50 of 8.74.

On to `CCOC(=O)CCc1cn(Cc2ccc(OCc3nc(-c4ccco4)oc3C)cc2)nc1-c1ccc(F)cc1` [Example 104, ethyl 3-[3-(4-fluorophenyl)-1-[4-[2-(2-furyl)-5-methyl-4-oxazolylmethoxy]benzyl]-1H-pyrazol-4-yl]propionate], for which, at PPARγ-RXRα heterodimer, the pEC50 is 8.70. Also, the inhibition in vivo at 0.001 % in the data set on KKA^y mice [1] (setting [5]) came to 43%; with KKA^y mice [1] (setting [6]) it was 42%.

As for `CCOc1nn(Cc2ccc(OCc3nc(-c4cccs4)oc3C)c(OC)c2)cc1CCC(=O)O` [Example 176], the “Hypoglycemic action (%)” value with KKA^y mice [1] (0.001% in powdery diet, percent reduction of plasma glucose compared with the non-treatment group) turned out to be 40%. Also, the “Hypolipidemic action (%)” value with KKA^y mice [1] (0.001% in powdery diet, percent reduction of plasma triglyceride compared with the non-treatment group) is given as 66%. Further, the “Plasma anti-arteriosclerosis index-enchancing action (%)” value in the data set on KKA^y mice [2] (0.001% in powdery diet, percent increase of [(HDL cholesterol/total cholesterol)×100]) was 11%. Besides, in the data set on KKA^y mice [2] (0.001% in powdery diet, percent reduction of plasma total cholesterol), the “Total cholesterol lowering action (%)” value worked out at 23%.

For `CCOc1nn(Cc2ccc(OCc3csc(-c4ccccc4)n3)cc2)cc1CCC(=O)O` [Example 181, 3-[3-ethoxy-1-[4-(2-phenyl-4-thiazolylmethoxy)benzyl]-1H-pyrazol-4-yl]propionic acid], the inhibition in vivo at 0.005 % in the data set on KKA^y mice [1] (setting [3]) stood at 56%; with KKA^y mice [1] (setting [4]), 63%; in the data set on KKA^y mice [2] (setting [8]), 25%. Besides, the change in vivo at 0.005 % in the data set with KKA^y mice [2] (setting [7]) was determined as 21%.

For `CCOc1nn(Cc2ccc(OCc3nc(-c4ccccc4)oc3C)nc2)cc1CCC(=O)O` [Example 184, 3-[3-ethoxy-1-[2-(5-methyl-2-phenyl-4-oxazolylmethoxy)-5-pyridylmethyl]-1H-pyrazol-4-yl]propionic acid], the inhibition in vivo at 0.005 % came out at 56% in the data set on KKA^y mice [1] (setting [3]), 82% with KKA^y mice [1] (setting [4]) and 27% in the data set on KKA^y mice [2] (setting [8]). Further, in the data set on KKA^y mice [2] (setting [7]), the change in vivo at 0.005 % came out at 17%.

Take `CCOc1nn(Cc2ccc(OCc3nc(-c4cccs4)oc3C)cc2)cc1CCC(=O)O` [Example 189, 3-[3-ethoxy-1-[4-[5-methyl-2-(2-thienyl)-4-oxazolylmethoxy]benzyl]-1H-pyrazol-4-yl]propionic acid]: the inhibition in vivo at 0.001 % with KKA^y mice [1] (setting [5]) was 44%; with KKA^y mice [1] (setting [6]), 75%; in the data set with KKA^y mice [2] (Mus musculus, po, 96 h, 0.001% in powdery diet, percent reduction of plasma total cholesterol), 21%. In addition, the change in vivo at 0.001 % with KKA^y mice [2] (Mus musculus, po, 96 h, 0.001% in powdery diet, percent increase of [(HDL cholesterol/total cholesterol)×100], read-out: Plasma anti-arteriosclerosis index-enchancing action (%)) was 20%.
